In article PMC6430017, “Structural and chemical insights into the covalent-allosteric inhibition of the protein kinase Akt” (Chemical Science, 2019):

Legend:
Test in all cases: SelectScreen Z'LYTE kinase profiling
Format in all cases: biochemical
Details in all cases: ATP at apparent KM
STK4 (MST1) = target: T1, STK4 (MST1) (Homo sapiens, UniProt Q13043)
T1 sequence (Q13043 1-487): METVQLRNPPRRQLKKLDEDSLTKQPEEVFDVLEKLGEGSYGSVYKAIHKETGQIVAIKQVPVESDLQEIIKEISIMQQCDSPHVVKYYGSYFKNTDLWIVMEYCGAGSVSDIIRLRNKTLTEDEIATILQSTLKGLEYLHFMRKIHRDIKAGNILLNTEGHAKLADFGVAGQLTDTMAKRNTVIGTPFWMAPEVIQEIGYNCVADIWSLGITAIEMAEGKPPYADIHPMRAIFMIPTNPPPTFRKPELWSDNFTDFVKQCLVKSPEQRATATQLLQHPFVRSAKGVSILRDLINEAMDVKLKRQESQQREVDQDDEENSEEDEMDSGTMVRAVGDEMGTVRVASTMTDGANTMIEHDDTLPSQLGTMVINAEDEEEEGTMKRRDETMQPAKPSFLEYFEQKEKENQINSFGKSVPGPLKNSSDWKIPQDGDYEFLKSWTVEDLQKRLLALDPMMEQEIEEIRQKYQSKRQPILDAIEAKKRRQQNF

GRK5 = GRK5 (Homo sapiens, UniProt P34947)
Sequence of GRK5 (P34947 whole entry): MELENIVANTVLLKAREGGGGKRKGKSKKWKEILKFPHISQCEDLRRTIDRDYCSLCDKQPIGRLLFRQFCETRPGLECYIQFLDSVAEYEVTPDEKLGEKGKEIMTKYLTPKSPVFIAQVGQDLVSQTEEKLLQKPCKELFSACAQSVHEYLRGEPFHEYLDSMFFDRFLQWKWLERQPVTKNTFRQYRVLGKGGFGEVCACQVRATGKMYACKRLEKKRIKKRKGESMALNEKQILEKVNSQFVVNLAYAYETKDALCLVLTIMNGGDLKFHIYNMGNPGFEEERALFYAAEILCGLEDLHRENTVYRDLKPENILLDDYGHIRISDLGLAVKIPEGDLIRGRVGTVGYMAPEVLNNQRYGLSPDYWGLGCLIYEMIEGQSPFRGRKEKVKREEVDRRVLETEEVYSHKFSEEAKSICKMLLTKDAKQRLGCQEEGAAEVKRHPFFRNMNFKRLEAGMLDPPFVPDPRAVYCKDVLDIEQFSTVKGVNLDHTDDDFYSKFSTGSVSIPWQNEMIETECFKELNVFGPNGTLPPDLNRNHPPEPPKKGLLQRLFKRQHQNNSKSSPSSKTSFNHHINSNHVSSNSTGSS
Procedure: (§1) protein kinases at a compound concentration of 1 µM. Measurements were performed in duplicates
(§2) and at the particular apparent ATP KM of each individual kinase employing the activity based Z’LYTE®
(§3) kinase assay of the SelectScreen® Kinase Profiling Services (ThermoFisher Scientific).
(§4) kinases at a compound concentration of 1 µM. Measurements were performed in duplicates and at
(§5) the particular apparent ATP KM of each individual kinase employing the activity based Z’LYTE® kinase
(§6) assay of the SelectScreen® Kinase Profiling Services (ThermoFisher Scientific).

JAK3 = target: T2, JAK3 (Homo sapiens, UniProt P52333)
T2 sequence (P52333 1-1124): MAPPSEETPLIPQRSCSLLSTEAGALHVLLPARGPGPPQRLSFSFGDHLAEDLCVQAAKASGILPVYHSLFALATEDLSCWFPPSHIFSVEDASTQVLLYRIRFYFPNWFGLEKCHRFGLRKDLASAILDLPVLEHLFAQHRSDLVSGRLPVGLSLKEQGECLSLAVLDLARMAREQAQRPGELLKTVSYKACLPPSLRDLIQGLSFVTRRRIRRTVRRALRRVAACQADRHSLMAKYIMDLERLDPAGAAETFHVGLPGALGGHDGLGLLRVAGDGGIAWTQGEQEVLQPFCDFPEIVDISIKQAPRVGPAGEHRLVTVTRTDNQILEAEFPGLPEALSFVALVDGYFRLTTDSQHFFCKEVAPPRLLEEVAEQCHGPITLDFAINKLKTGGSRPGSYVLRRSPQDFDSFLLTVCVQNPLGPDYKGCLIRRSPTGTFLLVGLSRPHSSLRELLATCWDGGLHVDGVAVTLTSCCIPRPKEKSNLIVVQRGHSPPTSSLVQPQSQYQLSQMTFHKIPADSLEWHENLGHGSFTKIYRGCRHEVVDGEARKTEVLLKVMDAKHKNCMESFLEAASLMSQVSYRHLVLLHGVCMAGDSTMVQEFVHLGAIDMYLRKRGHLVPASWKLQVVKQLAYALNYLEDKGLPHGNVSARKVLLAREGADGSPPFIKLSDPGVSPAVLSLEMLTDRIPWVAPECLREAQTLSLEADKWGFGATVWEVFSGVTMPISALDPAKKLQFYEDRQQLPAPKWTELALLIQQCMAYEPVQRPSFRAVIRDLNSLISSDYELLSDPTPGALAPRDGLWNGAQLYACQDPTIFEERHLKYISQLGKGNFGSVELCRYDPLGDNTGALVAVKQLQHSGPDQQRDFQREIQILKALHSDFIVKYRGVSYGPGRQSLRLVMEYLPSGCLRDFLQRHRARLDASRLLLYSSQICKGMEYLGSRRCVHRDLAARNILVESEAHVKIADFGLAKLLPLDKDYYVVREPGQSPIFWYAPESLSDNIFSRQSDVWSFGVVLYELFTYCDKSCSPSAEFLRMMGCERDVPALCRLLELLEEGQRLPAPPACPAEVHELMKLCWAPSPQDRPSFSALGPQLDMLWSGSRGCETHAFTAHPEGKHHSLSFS
Procedure: as §1, §2, §3, §4, §5, §6

AMPK A2/B1/G1 = AMPK A2/B1/G1 (Homo sapiens, UniProt P54646)
Sequence of AMPK A2/B1/G1 (P54646 whole entry): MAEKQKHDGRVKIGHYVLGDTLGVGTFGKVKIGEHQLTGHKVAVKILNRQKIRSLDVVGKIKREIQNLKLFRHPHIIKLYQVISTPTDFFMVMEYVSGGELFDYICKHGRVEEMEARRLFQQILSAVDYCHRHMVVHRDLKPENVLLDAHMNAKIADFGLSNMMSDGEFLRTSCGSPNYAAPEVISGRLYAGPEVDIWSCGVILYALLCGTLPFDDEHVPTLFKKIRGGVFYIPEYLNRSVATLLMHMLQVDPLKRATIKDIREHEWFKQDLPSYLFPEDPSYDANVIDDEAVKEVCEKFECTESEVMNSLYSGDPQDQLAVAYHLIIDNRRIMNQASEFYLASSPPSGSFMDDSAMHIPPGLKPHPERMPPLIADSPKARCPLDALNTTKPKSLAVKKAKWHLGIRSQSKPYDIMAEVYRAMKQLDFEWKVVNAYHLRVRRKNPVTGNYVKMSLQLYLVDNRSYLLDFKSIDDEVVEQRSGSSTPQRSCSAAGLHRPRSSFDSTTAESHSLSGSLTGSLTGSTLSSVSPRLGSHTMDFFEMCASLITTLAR
Sequence of AMPK A2/B1/G1 (Q9Y478 whole entry partner): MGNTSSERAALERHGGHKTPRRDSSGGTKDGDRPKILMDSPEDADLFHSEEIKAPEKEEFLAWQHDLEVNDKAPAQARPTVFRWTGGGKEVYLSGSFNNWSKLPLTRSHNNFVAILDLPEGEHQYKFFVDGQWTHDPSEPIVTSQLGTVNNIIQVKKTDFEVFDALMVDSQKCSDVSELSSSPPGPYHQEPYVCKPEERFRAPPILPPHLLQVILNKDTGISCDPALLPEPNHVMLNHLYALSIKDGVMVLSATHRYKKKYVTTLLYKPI
Sequence of AMPK A2/B1/G1 (P54619 whole entry partner): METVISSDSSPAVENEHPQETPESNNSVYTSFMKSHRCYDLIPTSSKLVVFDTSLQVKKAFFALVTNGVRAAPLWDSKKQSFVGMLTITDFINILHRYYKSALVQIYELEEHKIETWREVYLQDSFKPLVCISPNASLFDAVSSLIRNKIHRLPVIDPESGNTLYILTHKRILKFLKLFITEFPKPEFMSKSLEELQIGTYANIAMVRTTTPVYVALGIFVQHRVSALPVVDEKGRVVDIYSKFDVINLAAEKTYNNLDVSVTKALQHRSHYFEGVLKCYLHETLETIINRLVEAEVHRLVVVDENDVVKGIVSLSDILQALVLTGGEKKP
Procedure: as §1, §2, §3, §4, §5, §6

MARK1 (MARK) = MARK1 (MARK) (Homo sapiens, UniProt Q9P0L2)
Procedure: as §1, §2, §3, §4, §5, §6

PRKCN (PKD3) = target: T3, PRKCN (PKD3) (Homo sapiens, UniProt O94806)
T3 sequence (O94806 1-890): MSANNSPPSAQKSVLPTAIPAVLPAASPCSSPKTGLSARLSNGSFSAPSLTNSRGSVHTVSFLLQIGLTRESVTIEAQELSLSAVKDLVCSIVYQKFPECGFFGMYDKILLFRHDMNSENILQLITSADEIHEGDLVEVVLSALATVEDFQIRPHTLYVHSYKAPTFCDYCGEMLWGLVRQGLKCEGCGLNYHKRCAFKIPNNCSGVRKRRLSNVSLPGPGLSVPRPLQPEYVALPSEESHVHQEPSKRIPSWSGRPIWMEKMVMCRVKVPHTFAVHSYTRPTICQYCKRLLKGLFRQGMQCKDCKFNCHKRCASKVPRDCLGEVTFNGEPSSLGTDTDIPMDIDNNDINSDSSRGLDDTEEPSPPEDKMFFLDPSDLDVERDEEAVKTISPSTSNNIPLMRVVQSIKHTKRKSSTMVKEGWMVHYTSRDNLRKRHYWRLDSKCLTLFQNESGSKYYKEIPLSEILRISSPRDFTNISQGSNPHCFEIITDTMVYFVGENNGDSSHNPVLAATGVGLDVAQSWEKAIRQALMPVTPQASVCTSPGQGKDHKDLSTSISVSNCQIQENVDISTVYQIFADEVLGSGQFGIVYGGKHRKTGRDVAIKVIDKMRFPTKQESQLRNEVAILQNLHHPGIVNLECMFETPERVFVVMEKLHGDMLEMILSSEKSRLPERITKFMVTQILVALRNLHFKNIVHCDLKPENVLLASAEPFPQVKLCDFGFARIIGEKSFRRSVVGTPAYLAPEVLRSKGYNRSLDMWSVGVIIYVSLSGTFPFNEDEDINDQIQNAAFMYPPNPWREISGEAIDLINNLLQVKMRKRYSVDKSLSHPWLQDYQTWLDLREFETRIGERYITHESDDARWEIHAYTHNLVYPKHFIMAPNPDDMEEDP
Procedure: as §1, §2, §3, §4, §5, §6

GRK4 = GRK4 (Homo sapiens, UniProt P32298)
Sequence of GRK4 (P32298 whole entry): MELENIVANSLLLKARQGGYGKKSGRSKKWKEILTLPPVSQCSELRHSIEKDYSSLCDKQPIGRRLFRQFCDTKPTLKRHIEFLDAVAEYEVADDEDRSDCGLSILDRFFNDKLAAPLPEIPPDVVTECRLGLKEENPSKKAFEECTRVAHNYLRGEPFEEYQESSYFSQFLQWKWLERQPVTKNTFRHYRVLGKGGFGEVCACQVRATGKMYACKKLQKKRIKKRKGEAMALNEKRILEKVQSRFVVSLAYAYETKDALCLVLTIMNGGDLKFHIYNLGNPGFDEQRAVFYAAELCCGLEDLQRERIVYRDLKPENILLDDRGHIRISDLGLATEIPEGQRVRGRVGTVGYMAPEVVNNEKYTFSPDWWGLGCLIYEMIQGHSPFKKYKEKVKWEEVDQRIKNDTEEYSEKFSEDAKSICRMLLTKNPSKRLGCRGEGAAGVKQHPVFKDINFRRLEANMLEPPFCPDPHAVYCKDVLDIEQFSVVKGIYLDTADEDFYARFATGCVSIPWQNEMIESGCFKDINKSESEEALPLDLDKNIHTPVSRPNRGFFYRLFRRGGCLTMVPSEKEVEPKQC
Procedure: as §1, §2, §3, §4, §5, §6

PDGFRA (PDGFR alpha) = PDGFRA (PDGFR alpha) (Homo sapiens, UniProt P16234)
Sequence of PDGFRA (PDGFR alpha) (P16234 24-1089): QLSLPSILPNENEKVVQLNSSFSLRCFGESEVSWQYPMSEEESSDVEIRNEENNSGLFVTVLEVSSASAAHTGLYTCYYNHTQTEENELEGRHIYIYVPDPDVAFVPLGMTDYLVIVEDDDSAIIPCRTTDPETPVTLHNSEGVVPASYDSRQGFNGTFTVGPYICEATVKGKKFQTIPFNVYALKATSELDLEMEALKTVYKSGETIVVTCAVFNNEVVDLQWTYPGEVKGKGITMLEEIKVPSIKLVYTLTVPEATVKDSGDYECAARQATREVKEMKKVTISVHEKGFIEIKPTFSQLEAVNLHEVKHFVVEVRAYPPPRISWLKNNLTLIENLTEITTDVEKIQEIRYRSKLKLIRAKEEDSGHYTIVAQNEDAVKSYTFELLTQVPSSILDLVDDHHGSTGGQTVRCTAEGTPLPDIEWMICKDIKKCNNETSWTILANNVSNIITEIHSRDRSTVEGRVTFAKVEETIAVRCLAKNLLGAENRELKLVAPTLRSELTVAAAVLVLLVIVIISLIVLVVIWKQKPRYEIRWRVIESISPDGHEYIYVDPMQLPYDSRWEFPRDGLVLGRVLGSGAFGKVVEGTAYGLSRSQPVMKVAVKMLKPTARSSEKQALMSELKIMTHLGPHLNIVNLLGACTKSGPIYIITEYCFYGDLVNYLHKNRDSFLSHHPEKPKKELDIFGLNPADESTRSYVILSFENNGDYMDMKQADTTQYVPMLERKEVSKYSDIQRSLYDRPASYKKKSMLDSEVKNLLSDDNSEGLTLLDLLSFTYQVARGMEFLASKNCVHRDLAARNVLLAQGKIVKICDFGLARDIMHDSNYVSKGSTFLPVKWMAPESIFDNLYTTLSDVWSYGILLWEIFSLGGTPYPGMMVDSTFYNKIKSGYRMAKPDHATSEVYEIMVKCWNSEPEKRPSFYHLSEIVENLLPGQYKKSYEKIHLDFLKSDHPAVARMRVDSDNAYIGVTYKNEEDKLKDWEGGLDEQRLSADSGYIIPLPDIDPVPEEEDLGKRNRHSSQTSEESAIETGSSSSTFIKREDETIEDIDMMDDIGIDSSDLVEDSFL
Procedure: as §1, §2, §3, §4, §5, §6

FGFR1 = FGFR1 (Homo sapiens, UniProt P11362)
Sequence of FGFR1 (P11362 22-822): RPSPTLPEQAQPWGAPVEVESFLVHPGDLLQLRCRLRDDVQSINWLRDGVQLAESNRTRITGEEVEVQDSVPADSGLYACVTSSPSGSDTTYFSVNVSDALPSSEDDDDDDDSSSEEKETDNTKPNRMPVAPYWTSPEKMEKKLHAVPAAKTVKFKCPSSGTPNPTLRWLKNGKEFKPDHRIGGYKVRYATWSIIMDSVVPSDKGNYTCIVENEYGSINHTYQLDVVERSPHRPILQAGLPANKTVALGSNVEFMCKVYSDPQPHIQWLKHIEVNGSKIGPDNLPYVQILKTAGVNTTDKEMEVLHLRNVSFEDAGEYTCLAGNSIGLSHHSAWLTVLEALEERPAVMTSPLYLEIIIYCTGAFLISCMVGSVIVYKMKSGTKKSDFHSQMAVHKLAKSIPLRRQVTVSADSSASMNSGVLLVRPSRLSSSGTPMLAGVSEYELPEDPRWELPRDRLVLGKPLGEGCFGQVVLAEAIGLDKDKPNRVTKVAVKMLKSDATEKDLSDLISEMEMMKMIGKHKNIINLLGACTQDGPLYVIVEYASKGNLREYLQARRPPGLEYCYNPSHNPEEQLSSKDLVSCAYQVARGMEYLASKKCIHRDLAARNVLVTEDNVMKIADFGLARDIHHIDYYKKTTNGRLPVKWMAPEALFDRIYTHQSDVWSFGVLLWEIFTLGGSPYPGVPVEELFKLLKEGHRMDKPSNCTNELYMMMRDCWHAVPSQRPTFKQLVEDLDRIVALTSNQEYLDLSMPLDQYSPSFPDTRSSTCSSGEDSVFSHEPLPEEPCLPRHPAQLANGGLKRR
Procedure: as §1, §2, §3, §4, §5, §6

CDK2/cyclin A = CDK2/cyclin A (Homo sapiens, UniProt P24941)
Procedure: as §1, §2, §3, §4, §5, §6

MELK = MELK (Homo sapiens, UniProt Q14680)
Sequence of MELK (Q14680 whole entry): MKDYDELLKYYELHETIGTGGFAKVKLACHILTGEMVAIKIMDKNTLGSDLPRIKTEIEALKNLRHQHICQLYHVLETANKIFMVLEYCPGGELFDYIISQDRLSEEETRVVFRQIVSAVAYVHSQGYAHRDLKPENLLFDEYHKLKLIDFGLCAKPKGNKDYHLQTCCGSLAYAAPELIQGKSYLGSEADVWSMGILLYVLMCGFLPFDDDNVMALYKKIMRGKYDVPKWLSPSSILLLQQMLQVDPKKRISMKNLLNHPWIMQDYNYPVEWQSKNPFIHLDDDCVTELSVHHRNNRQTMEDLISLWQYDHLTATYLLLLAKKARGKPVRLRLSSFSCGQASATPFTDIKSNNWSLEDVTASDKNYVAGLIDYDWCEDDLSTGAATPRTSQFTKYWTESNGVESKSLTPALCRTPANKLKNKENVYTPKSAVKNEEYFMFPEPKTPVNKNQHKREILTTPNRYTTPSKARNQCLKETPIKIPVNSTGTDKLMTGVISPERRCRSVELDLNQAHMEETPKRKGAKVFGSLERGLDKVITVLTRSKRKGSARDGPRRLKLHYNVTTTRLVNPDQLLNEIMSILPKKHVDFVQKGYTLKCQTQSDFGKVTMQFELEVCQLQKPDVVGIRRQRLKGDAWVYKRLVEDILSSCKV
Procedure: as §1, §2, §3, §4, §5, §6

C=CC(=O)Nc1cccc(C(=O)NC2CCN(Cc3ccc(-c4nc5cc[nH]c(=O)c5cc4-c4ccccc4)cc3)CC2)c1 [30b]
inhibition at 1 µM (STK4 (MST1)): 7% | inhibition at 1 µM (GRK5): -1% | inhibition at 1 µM (JAK3): 26% | inhibition at 1 µM (AMPK A2/B1/G1): 40% | inhibition at 1 µM (MARK1 (MARK)): 5% | inhibition at 1 µM (PRKCN (PKD3)): 14% | inhibition at 1 µM (GRK4): 6% | inhibition at 1 µM (PDGFRA (PDGFR alpha)): -7% | inhibition at 1 µM (FGFR1): 10% | inhibition at 1 µM (CDK2/cyclin A): 11% | inhibition at 1 µM (MELK): 52%

C=CC(=O)Nc1ccc2c(c1)n(C1CCN(Cc3ccc(-c4nc5cc[nH]c(=O)c5cc4-c4ccccc4)cc3)CC1)c(=O)n2C [24b]
inhibition at 1 µM (STK4 (MST1)): 6% | inhibition at 1 µM (GRK5): -10% | inhibition at 1 µM (JAK3): 23% | inhibition at 1 µM (AMPK A2/B1/G1): 20% | inhibition at 1 µM (MARK1 (MARK)): 2% | inhibition at 1 µM (PRKCN (PKD3)): 10% | inhibition at 1 µM (GRK4): -1% | inhibition at 1 µM (PDGFRA (PDGFR alpha)): -5% | inhibition at 1 µM (FGFR1): 7% | inhibition at 1 µM (CDK2/cyclin A): 7% | inhibition at 1 µM (MELK): 48%

C=CC(=O)Nc1cc(NC(=O)NC2CCN(Cc3ccc(-c4nc5cc[nH]c(=O)c5cc4-c4ccccc4)cc3)CC2)ccc1Cl [compound 27]
inhibition at 1 µM (STK4 (MST1)): 14% | inhibition at 1 µM (GRK5): -2% | inhibition at 1 µM (JAK3): 17% | inhibition at 1 µM (AMPK A2/B1/G1): 77% | inhibition at 1 µM (MARK1 (MARK)): 7% | inhibition at 1 µM (PRKCN (PKD3)): 16% | inhibition at 1 µM (GRK4): 11% | inhibition at 1 µM (PDGFRA (PDGFR alpha)): 0% | inhibition at 1 µM (FGFR1): 24% | inhibition at 1 µM (CDK2/cyclin A): 6% | inhibition at 1 µM (MELK): 83%
